These results are taken from patent publication US5385931A, “Sulfonamides derived from benzocyclic or benzoheterocyclic acids, their preparation and application in therapeutics” (Pierre Fabre Medicament, priority 1989, dated 1995).

One series relates to conventional mice. Kind of series: Toxicology, intraperitoneal, mice. Format: in vivo. The settings on record: 500 mg per kilo intraperitoneally. The method, then:
The chemical compounds described above were subjected to toxicity checks. This study was carried out on conventional mice weighing from 20 to 22 g. The compounds of general formula I were administered intraperitoneally.

The next series in a line: Solubility in DMSO. It is filed as physicochemical.
In series [1] the test system is platelet aggregation induced by U.46619. Description: Ex vivo inhibition of U.46619-induced platelet aggregation after oral administration in rabbits. More on the design: species or system New Zealand rabbits. To be noted: t=+90 min relative to control curve at t=0. The method, then:
b) Ex vivo action: inhibition of anti-aggregant effects using U.46619 in rabbits.
Because of their powerful activity in vitro, the anti-aggregant effects ex vivo were studied in rabbits. The substances of general formula I, which are the subject of the present invention, are administered orally as a 1% suspension in carboxymethylcellulose to natural male New Zealand rabbits weighing 2.5 to 3 kg after going without nourishment for about 18 h. Blood samples were taken by cardiac puncture at time 0 and after 90 min. The aggregant U.46619 was used under the same conditions as above and the measurement of the aggregation was carried out using the same technique.
The results are expressed in Table III in terms of percentage inhibition of the maximum amplitude of the aggregation curve at t=+90 min relative to the control curve at t=0 and are given for compounds 2 and 3 by way of non-limiting example: […]

The subject of series [2] is blood platelet aggregation induced by arachidonic acid. Description: In vitro rabbit platelet aggregation induced by arachidonic acid. Format: cell-based, New Zealand rabbits. To be noted: arachidonic acid 50 to 100 micromoles. As to the method:
(§1) Blood is taken from white male New Zealand rabbits which have not received any treatment capable of disrupting the platelet functions.
(§2) After having allowed the first drops to flow freely, the blood is collected in plastic tubes containing 3.8% (wt/v) trisodium citrate 5.5 H2 O, the citrate/blood ratio being 1 volume of citrate per 9 volumes of blood.
(§3) The blood platelet aggregation study is carried out starting from plasmas rich in platelets obtained by centrifuging the above blood samples at low speed. It is measured with the aid of a Mustard aggregometer at a wavelength of 609 nm with a stirring speed of 1,100 revolutions/min.
(§4) The products to be studied are dissolved in polyethylene glycol 300 and pre-incubated for 1 min at 37° C. under a volume of 10 microliters,in a mixture of 300 microliters of plasma rich in platelets and 90 microliters of Tyrode's solution without calcium, pH=7.4. (Corresponding controls are produced by pre-incubating the vehicle on its own instead of solutions of products to be studied).
(§5) The blood platelet aggregation is initiated by the addition either of U.46619 (final concentrations: 1.05 to 2.44 micromoles) or of arachidonic acid (final concentrations: 50 to 100 micromoles).
(§6) Starting from the parameter of the maximum percentage aggregation, the anti-aggregant activity of a product is calculated using the formula: [formula]
The percentage inhibition of the aggregation with arachidonic acid is given in Table II for compounds 2 and 3 by way of non-limiting examples: […]

For series [3], the system named is blood platelet aggregation induced by U.46619. Kind of series: In vitro rabbit platelet aggregation induced by U.46619. The settings on record: Oryctolagus cuniculus; rabbit platelet-rich plasma; U.46619 1.05 to 2.44 micromoles; pre-incubated 1 min at 37° C., pH 7.4. Format: cell-based, New Zealand rabbits. The method, then: as §1, §2, §3, §4, §5, §6
One curve: anti-aggregant activity=f (final concentration) is plotted for each product and the 50% inhibitory concentration determined from the graph.
In the case of aggregation with U.46619, the IC50 are given in Table I for compounds 1, 2, 3, 7 and 11 by way of non-limiting example: […]

As for `O=C(O)C1Cc2cc(C(O)CNS(=O)(=O)c3ccc(Cl)cc3)ccc2O1` (stereo not drawn) [Compound 3, 5-(2-parachlorobenzenesulphonamido-1-hydroxyethyl)-2,3-dihydro-2-benzofurancarboxylic acid], in the series on conventional mice, the fatality entry was “not a single fatality” and the toxicity result is listed as “atoxic”. The “soluble in DMSO to give a solution of” value in “Solubility in DMSO” was found to be 10%. The “% inhibition of aggregation” value in series [1] (5 mg/kg orally) is reported as -43%. For the same compound, the “% inhibition of aggregation” value in series [1] (10 mg/kg orally) is -74%. Besides, the inhibition at 100 µM in series [2] (Oryctolagus cuniculus, Platelet, final concentration of compound 10^-4 M) was -86%. Further, the inhibition at 10 µM in series [2] (Oryctolagus cuniculus, Platelet, final concentration of compound 10^-5 M) is -7%. In addition, the “% inhibition of platelet aggregation” value in series [2] (final concentration of compound 5.10^-5 M) is listed as -78%. It took 5 µM to reach half-maximal inhibition in series [3] (IC50).
